The nature of data set [1]: Lipophilicity, shake-flask log D7.4 (1-octanol/PBS). The data set is classed as physicochemical. The note with it: 1-octanol/PBS pH 7.4, n = 4. On the procedure:
Lipophilicity was determined with the shake-flask method as a distribution coefficient between 0.01 M PBS and octanol. Purified radiotracer [^18F]6 (10 μL, ∼200 kBq, 1.5 nmol), [^18F]14 (20 μL, ∼260 kBq, 125 pmol), or [^18F]15 (20 μL, 144 kBq, 67 pmol) in a polypropylene tube containing 1500–2000 μL of each in a 1:1 mixture (1-octanol, 0.02 M PBS, pH 7.4) was shaken mechanically (500 rpm, 10 min) and centrifuged (1000g, 5 min), and samples from each layer (400 μL, n = 4) were measured with a γ-counter. The log D7.4 was calculated as a distribution between the two layers at pH 7.4. [^18F]6 (10 MBq, 40 nmol) diluted with 0.01 M PBS at pH 7.4 (≤1% ethanol, 5300 μL) was incubated for 180 min. At selected time points (5, 30, 60, 90, 120, 150, and 180 min), a sample (100 μL) was injected to radio-HPLC. [^18F]14 and [^18F]15 (29 MBq, 10 nmol) diluted in 2000 μL of 0.01 M PBS (≤1% ethanol) were left to incubate. A sample of [^18F]14 (100 μL) after 9 hours and [^18F]15 at selected time points between 30 and 335 min were injected into HPLC (method A). [^18F]15 (0.6 MBq, 0.134 nmol, 200 μL) formulated in ≤5% EtOH-1 × PBS was added and incubated in 2000 μL of PBS-50% human plasma at 37 °C. A 100 μL sample (at 60, 120, 180, and 240 min, n = 2) was diluted with 200 μL of cold acetonitrile and centrifuged (10,000g, 5 min). After centrifugation, a 100 μL sample of the supernatant was injected for radio-HPLC analysis. […]
Lipophilicity. The lipophilicities were determined with the shake-flask method as a distribution profile between 0.01 M PBS and octanol at pH 7.4. The distribution of the radiolabeled compound between the octanol and the PBS layers was calculated according

The test system of data set [2] is SSTR2-expressing rat pancreatic adenocarcinoma AR42J cells. Briefly: Cell uptake assay. Particulars: 120 min; for cell uptake, baseline: n = 3, % internalized; for cell uptake, blocking: n = 3, coincubation with excess octreotide. Type of data set: cell-based. On the procedure:
AR42J cells were grown to >90% confluence. One million cells/well were seeded overnight on 6-well plates. The growth media was removed, and the reaction media (1 mL) containing [^18F]14 (11 kBq, 10 pmol per well) or [^18F]15 (97 kBq, 40 pmol per well) was added. Additionally, cells were coincubated with 2.4 nmol per well of nonmodified octreotide for blocking of radiotracer uptake. Radioactivity in the free, membrane-bound, and internalized fractions was determined at designated time points (15, 30, 60, and 120 min) by treating the cells in a sequence of (1) ice-cold 0.01 M PBS, (2) glycine buffer, and (3) 1 M NaOH, respectively. The fractions were collected and measured with a γ-counter. The detailed protocol is given in the Supporting Information. […]
where Acoct=radioactivity concentration of octanol and AcPBS=radioactivity concentration of PBS. The datapoints were presented as mean ± standard deviation.
AR42J cell-uptake assay and mouse tumor model. Rat pancreatic tumor cell line AR42J that expresses SSTR2, was cultured at 37 °C in 95% relative humidity incubator containing 5% CO2. Cells grown to >90% confluence were used for either in vitro or in vivo experiments.
One million cells/well were seeded overnight on 6-well plates. The growth media was removed and the medium (1 mL/well) containing [18F]14 (11 kBq, 10 pmol per well) or [18F]15 (97 kBq, 40 pmol per well) was added. For studying the specificity of the cell -uptake, a set of cells were co-incubated in the presence of 2.4 nmol per well of non -modified octreotide representative of blocking conditions (total volume ~1 mL). For determining the amount of the radiotracer in the free fraction, at the designated time-points (15, 30, 60 and 120 min) the incubated media were removed, collected to a 5 mL scintillation tube, cells were washed with 1 mL of cold 0.01 M PBS (1×PBS) and again the supernatant collected into the same scintillation tube. Membrane-bound fraction; ice-cold glycine buffer (1 mL) was added on the cells, incubated for 5 minutes on ice, supernatant removed (procedure repeated once more) and the cells washed with ice -cold 1×PBS, and all washing solutions were collected to the same scintillation tube. Internalized fraction; 1 M NaOH (1 mL) was added on the cells and left incubating at an ambient temperature for 10 min. The supernatant was removed, the wells were washed 2 × 1 mL of cold 0.01 M PBS, and the supernatants collected to the same microtube. The collected samples were measured with a gamma counter for measuring the counts per minute (CPM) of each fraction (n = 3). The internalization is presented in percent (%) normalized to the total radioactivity in all three

A short description of data set [3]: Ex vivo radiometabolite analysis in mouse blood and urine (radio-TLC, radio-HPLC). Particulars: for radiotracer intact in blood and urine: 60 min post injection, ex vivo. The protocol:
After tracer injection, CO2 asphyxiation, and cervical dislocation, blood was collected from a cardiac puncture into a tube containing 2 μL of 1% heparin (diluted from 5100 IU/mL) in 0.9% NaCl (aq.). The sample was centrifuged (1000g, 10 min) to separate the plasma from the blood cells. Cold acetonitrile (2 × vol of plasma) was added and centrifuged (10,000g for 5 min) to precipitate the proteins. A sample (100 μL) of the supernatant was injected into HPLC for radio-HPLC analysis. For the tracer [^18F]14, the supernatant was sampled also on TLC for digital autoradiography analysis.
Whole blood from mice were extracted during ex vivo studies, using cardiac puncture. The sample was applied in a microtube containing 1% heparin solution in 0.9% NaCl (aq.) (2 μL); the sample was centrifuged (1000g, 10 min), the total radioactivity in the sample was measured with a γ counter, the supernatant was separated from the pellet (RBC containing fraction), and cold ACN (500 μL) was added. The sample was centrifuged (10,000g, 5 min) to remove the free fraction from the precipitated protein-containing pellet. The pellet (protein-bound fraction) and the supernatant (free fraction) were measured with a γ counter, and a sample (100 μL) was injected into HPLC and spotted (4 μL) on a TLC plate (radio-TLC, TLC silica gel 60 F254, ACN/water 80:20).
Figure S26. Ex vivo stability of [18F]AmBF3-PEG4-TOC ([18F]14) in AR42J tumor bearing mouse blood 5 and 30 minutes post-injection (Radio-TLC). […]
retardation factor (Rf) of Rf = 40 mm. At 30 minutes post-injection the radiometabolite at 40 mm had disappeared and instead a highly polar metabolite (2.8%) at 4.0 mm was visible, and was accompanied by another metabolite (2.0%) eluting in the immediate vicinity of [18F]14 at Rf = 58 mm. At 60 minutes post-injection the tracer accounted for ≥99% of the radioactivity both in blood and urine (ex vivo). […]
(1 picture or pasted object on this page, not shown here)

Where [4] appears, read: 30 minutes post-injection, radio-TLC.

Take `C[C@@H](O)[C@@H]1NC(=O)[C@H](CCCCN)NC(=O)[C@@H](Cc2c[nH]c3ccccc23)NC(=O)[C@H](Cc2ccc(O)cc2)NC(=O)[C@@H](NC(=O)[C@@H](Cc2ccccc2)NC(=O)CCOCCOCCOCCOCCON=Cc2ccc(C(=O)NCCOCCOCCOCCNC(=O)OC3CCCc4cnnc(-c5ccc(CC(=O)NCC[N+](C)(C)C[B-](F)(F)F)cc5)c4CC3)cc2)CSSC[C@@H](C(=O)N[C@H](CO)[C@@H](C)O)NC1=O` (stereo partly drawn) [[^18F]15]: in data set [1], the “log D7.4” value is given as −0.73 ± 0.12 and the logD was -0.7 ± 0.1. Also, in data set [2], the “cell uptake, baseline” value was found to be 6.1 ± 0.6% and the “cell uptake, blocking” value is 0.7 ± 0.1%.
`C[C@@H](O)[C@@H]1NC(=O)[C@H](CCCCN)NC(=O)[C@@H](Cc2c[nH]c3ccccc23)NC(=O)[C@H](Cc2ccc(O)cc2)NC(=O)[C@@H](NC(=O)[C@@H](Cc2ccccc2)NC(=O)CCOCCOCCOCCOCCON=Cc2ccc(CNC(=O)OC3CCCc4cnnc(-c5ccc(CC(=O)NCC[N+](C)(C)C[B-](F)(F)F)cc5)c4CC3)cc2)CSSC[C@@H](C(=O)N[C@H](CO)[C@@H](C)O)NC1=O` (stereo partly drawn) [[^18F]14] displayed a log distribution coefficient (logD) in data set [1] of -0.58 ± 0.06. Besides, in data set [2], the “cell uptake, baseline” value is listed as 1.0 ± 0.2% and the “cell uptake, blocking” value is 0.5 ± 0.1%. Besides, the “slightly polar metabolite in blood (Rf = 40 mm)” value in data set [3] (5 minutes post-injection, radio-TLC) turned out to be 4%. Further, in data set [3] (setting [4]), the “another metabolite in blood (Rf = 58 mm)” value worked out at 2.0% and the “highly polar metabolite in blood (4.0 mm)” value stood at 2.8%. For the same molecule, in data set [3], the “radiotracer intact in blood and urine” value is on record as “approximately 99%”. The “radiotracer intact in blood and urine” value in data set [3] (listed as [18F]14) is not below 99%.

For orientation: logD means lipophilicity at a set pH, counting ionised and neutral species.

For the origin of these results see article PMC9305971, “Development of [^18F]AmBF3 Tetrazine for Radiolabeling of Peptides: Preclinical Evaluation and PET Imaging of [^18F]AmBF3-PEG7-Tyr^3-Octreotide in an AR42J Pancreatic Carcinoma Model” (Bioconjugate Chemistry, 2022).
